According to PubChem BioAssay (NCI):
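Compound exposure: 48 hours, 5 concentrations, 96-well plates. At the GI50, growth is halved. TGI marks complete inhibition of growth.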

What was measured:
Test in all cases: DTP human tumour cell line panel, 48 h
UACC-62 melanoma = tested on: UACC-62 melanoma
SN12C renal = tested on: SN12C renal
SF-295 CNS = tested on: SF-295 CNS
M14 melanoma = tested on: M14 melanoma
MOLT-4 leukemia = tested on: MOLT-4 leukemia
SK-MEL-2 melanoma = tested on: SK-MEL-2 melanoma
UACC-257 melanoma = tested on: UACC-257 melanoma
UO-31 renal = tested on: UO-31 renal
SK-OV-3 ovarian = tested on: SK-OV-3 ovarian
PC-3 prostate = tested on: PC-3 prostate
SNB-19 CNS = tested on: SNB-19 CNS

Structure (SMILES) | TGI (UACC-62 melanoma) [µM] | TGI (SN12C renal) [µM] | TGI (SF-295 CNS) [µM] | TGI (M14 melanoma) [µM] | TGI (MOLT-4 leukemia) [µM] | TGI (SK-MEL-2 melanoma) [µM] | TGI (UACC-257 melanoma) [µM] | TGI (UO-31 renal) [µM] | TGI (SK-OV-3 ovarian) [µM] | TGI (PC-3 prostate) [µM] | TGI (SNB-19 CNS) [µM] | GI50 (UACC-62 melanoma) [µM] | GI50 (PC-3 prostate) [µM] | GI50 (SN12C renal) [µM] | GI50 (SF-295 CNS) [µM] | GI50 (SNB-19 CNS) [µM] | GI50 (SK-MEL-2 melanoma) [µM] | GI50 (UACC-257 melanoma) [µM] | GI50 (UO-31 renal) [µM] | GI50 (SK-OV-3 ovarian) [µM]
C1CCC(OCc2nnn3c2CCC3)OC1 (centres undefined) | > 100 | > 100 | > 100 | > 100 | > 100 | > 100 | > 100 | > 100 | > 100 |  |  |  |  |  |  |  |  |  |  | 
Cc1ccc(S(=O)(=O)N2c3ccccc3[C@H]3CCc4c([nH]c5ccccc45)[C@H]32)cc1 | > 100 | > 100 | > 100 | > 100 | > 100 | > 100 | > 100 | > 100 | > 100 | > 100 | > 100 |  |  |  |  |  |  |  |  | 
CC(C)OC(=O)Nc1cccc(Cl)c1 | > 100 | > 100 | > 100 | > 100 | > 100 | > 100 | > 100 | > 100 | > 100 | > 100 | > 100 |  |  |  |  |  |  |  |  | 
Nc1nc(Cl)cc(NCCCNc2cc(Cl)nc(N)n2)n1 | > 100 | > 100 | > 100 | > 100 | > 100 | > 100 | > 100 | > 100 | > 100 |  |  |  |  |  |  |  |  |  |  | 
Cn1cc(-c2csc(-c3cn(C)c4ccc(Br)cc34)n2)c2cnccc21 | 3.21 | 2.92 | 3.4 |  |  | 3.76 | 3.63 | 3 | 3.6 | 3.02 | 3.26 | 1.72 | 1.55 | 1.53 | 1.81 | 1.73 | 1.93 | 1.95 | 1.63 | 1.99
CS/C(C#N)=C(\C#N)SC | 14.4 | 34.4 | 53.8 | 6.56 | 4.77 | 31.7 | 30.6 | 18.9 |  | 62.2 | 65.9 |  |  |  |  |  |  |  |  | 
c1ccc(CSC2(SCc3ccccc3)CCCC2)cc1 | > 10 | > 10 | > 10 | > 10 | > 10 | > 10 |  | > 10 | > 10 | > 10 | > 10 |  |  |  |  |  |  |  |  | 
CN1C(=O)CN2C(Cl)(Cl)C2(c2ccccc2F)c2cc([N+](=O)[O-])ccc21 (centres undefined) | > 100 | 80.7 | > 100 | > 100 | 57.2 | > 100 | > 100 | > 100 |  |  |  |  |  |  |  |  |  |  |  | 
CC(N)C(=O)OCN1C(=O)C2C3C=CC(C2C1=O)C1C2C(=O)N(COC(=O)C(C)N)C(=O)C2C31 (centres undefined) | 49 | 55.8 | > 100 | 36.7 | 51.8 | 39 | 75.4 | > 100 | > 100 |  | > 100 |  |  |  |  |  |  |  |  | 
Cc1cccc(O)c1-c1nnc(CCCCCCCCc2nnc(-c3c(C)cccc3O)n2N)n1N | > 100 | > 100 | > 100 | > 100 | > 42.1 | > 83.3 | > 100 | > 100 | > 100 | > 100 | > 100 |  |  |  |  |  |  |  |  | 
O=c1oc2ccccc2n1P(=O)(n1c(=O)oc2ccccc21)n1c(=O)oc2ccccc21 | > 100 | > 100 | > 100 | > 100 | > 100 | > 100 | > 100 | > 100 | > 100 |  | > 100 |  |  |  |  |  |  |  |  | 
C[C@H]1C(=O)O[C@@H]1[C@H]1COC(C)(C)O1 | > 100 | > 100 | > 100 | > 100 | > 100 | > 100 | > 100 | > 100 | > 100 | > 100 | > 100 |  |  |  |  |  |  |  |  | 
NC(=O)c1ccc(NS(=O)(=O)c2ccc(N)cc2)nc1 | > 100 | > 100 | > 100 | > 100 | > 100 | > 100 | > 100 | > 100 | > 100 | > 100 | > 100 |  |  |  |  |  |  |  |  | 
